Experimental data: paper PMC5403251 (Neuropharmacology, 2016)

Tests used:
C57BL/6J mice [1] = assay: Discrete-trials temporal discrimination task; format: in vivo, mouse
C57BL/6J mice [2] = assay: Head twitch response; format: in vivo, mouse
human 5-HT2C receptor = target: T1, human 5-HT2C receptor (Homo sapiens, UniProt P28335); assay: NIMH PDSP competitive radioligand binding, [3H]mesulergine
T1 sequence (P28335 33-458): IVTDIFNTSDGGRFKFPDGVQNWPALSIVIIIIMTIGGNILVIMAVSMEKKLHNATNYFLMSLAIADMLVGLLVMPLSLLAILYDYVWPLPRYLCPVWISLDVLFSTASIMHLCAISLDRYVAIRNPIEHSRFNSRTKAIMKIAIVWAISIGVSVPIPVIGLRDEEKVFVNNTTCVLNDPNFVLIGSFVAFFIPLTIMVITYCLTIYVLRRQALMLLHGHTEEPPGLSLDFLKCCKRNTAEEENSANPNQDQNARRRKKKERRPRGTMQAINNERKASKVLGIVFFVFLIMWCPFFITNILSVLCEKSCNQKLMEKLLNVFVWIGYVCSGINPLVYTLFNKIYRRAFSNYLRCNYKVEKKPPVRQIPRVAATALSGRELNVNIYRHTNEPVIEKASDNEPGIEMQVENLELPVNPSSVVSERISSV

α2C = target: T2, α2C (Homo sapiens, UniProt P18825); assay: NIMH PDSP binding screen
T2 sequence (P18825 1-462): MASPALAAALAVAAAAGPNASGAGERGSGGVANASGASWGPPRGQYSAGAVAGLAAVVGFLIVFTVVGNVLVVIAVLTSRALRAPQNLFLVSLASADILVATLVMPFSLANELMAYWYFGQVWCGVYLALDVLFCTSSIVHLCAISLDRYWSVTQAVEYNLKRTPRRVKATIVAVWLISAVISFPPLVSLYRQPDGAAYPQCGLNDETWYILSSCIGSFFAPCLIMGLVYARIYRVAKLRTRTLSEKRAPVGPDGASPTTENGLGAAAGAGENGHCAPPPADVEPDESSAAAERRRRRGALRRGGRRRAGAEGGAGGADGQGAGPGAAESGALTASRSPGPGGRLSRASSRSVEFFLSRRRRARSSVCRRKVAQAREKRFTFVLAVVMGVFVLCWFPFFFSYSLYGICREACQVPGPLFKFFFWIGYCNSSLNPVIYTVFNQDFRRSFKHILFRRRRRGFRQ

5-HT6 = 5-HT6 (Homo sapiens, UniProt P50406); assay: NIMH PDSP binding screen
5-HT6, sequence (P50406 whole entry, species assumed): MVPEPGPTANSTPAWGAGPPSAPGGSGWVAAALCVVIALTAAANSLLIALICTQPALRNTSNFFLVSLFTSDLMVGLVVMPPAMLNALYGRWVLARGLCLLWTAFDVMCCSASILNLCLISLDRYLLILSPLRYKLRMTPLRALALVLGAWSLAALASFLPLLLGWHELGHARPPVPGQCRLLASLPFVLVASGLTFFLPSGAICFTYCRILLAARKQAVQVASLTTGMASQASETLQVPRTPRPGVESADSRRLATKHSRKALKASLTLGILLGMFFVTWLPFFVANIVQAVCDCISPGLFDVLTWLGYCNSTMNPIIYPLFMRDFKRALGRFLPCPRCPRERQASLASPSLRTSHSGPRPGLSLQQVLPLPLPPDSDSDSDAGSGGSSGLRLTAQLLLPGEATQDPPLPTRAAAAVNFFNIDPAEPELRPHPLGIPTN

sigma-2 = target: T3, sigma-2 (Rattus norvegicus, UniProt Q5U3Y7); assay: NIMH PDSP binding screen
T3 sequence (Q5U3Y7 1-176): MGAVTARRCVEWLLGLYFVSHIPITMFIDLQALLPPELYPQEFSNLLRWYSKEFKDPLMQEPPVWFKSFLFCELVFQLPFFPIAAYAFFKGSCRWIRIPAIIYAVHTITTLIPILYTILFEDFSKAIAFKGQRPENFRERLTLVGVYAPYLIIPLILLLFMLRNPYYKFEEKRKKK

α2A = target: T4, α2A (Homo sapiens, UniProt P08913); assay: NIMH PDSP binding screen
T4 sequence (P08913 1-465): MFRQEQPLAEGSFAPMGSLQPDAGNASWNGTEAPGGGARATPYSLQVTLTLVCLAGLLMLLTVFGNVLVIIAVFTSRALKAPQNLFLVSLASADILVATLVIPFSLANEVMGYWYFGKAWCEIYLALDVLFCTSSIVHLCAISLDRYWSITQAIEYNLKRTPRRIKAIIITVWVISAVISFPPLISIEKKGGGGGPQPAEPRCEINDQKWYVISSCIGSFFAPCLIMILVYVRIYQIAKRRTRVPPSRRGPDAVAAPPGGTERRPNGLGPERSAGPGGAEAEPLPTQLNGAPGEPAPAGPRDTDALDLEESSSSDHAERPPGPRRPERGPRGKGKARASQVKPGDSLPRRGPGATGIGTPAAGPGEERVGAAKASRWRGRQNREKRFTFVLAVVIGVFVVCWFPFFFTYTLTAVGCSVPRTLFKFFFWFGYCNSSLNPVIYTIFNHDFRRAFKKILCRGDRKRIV

α2B = target: T5, α2B (Homo sapiens, UniProt P18089); assay: NIMH PDSP binding screen
T5 sequence (P18089 1-450): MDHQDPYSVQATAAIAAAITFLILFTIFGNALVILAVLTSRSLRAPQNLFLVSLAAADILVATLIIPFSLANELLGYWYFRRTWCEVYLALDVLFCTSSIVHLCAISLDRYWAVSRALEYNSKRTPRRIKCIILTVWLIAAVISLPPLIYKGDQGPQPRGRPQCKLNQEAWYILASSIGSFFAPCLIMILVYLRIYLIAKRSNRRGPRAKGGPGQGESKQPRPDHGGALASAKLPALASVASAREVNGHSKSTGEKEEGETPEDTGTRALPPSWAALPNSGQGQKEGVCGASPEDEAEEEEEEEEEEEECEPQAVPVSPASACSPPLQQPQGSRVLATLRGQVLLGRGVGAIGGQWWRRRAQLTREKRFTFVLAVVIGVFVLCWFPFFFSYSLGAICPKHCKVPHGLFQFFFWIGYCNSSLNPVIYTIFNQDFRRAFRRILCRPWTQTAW

histaminergic H2 = histaminergic H2 (Homo sapiens, UniProt P25021); assay: NIMH PDSP binding screen
histaminergic H2, sequence (P25021 whole entry): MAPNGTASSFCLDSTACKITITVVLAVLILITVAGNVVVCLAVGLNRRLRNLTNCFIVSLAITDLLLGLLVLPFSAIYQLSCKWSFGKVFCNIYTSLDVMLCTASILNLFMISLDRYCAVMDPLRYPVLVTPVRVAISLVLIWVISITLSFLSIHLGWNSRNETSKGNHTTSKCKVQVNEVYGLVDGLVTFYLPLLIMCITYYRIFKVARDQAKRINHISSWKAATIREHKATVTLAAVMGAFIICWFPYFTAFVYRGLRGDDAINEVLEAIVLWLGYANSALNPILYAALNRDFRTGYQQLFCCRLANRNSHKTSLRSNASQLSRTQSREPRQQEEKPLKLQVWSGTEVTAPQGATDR

β2 = β2 (Homo sapiens, UniProt P07550); assay: NIMH PDSP binding screen
β2, sequence (P07550 whole entry): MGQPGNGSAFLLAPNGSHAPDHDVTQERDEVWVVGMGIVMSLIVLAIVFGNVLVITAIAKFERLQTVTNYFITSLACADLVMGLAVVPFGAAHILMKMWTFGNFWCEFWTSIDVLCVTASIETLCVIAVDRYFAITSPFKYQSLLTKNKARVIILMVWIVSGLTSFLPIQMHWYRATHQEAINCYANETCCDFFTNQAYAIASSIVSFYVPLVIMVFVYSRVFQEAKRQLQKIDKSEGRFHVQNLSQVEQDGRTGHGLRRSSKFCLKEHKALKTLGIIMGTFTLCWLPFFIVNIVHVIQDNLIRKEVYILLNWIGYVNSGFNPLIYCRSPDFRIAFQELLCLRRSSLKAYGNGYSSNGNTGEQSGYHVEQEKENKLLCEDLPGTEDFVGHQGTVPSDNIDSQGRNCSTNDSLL

NIH Swiss mice = conditions: mediated by the 5-HT2A receptor, ref Fantegrossi et al., 2014; cited from earlier work
5-HT2C receptors = conditions: ref Kennett et al., 1997; cited from earlier work
5-HT2C = conditions: in mice; ref Canal et al., 2013; cited from earlier work
[3] = 25CN-NBOH 1 mg/kg SC, 5 min before session
[4] = 25CN-NBOH 6 mg/kg SC, 5 min before session
[5] = SB-242,084 0.1 mg/kg SC, 10 min before session
[6] = SB-242,084 0.3 mg/kg SC, 10 min before session
[7] = SB-242,084 1 mg/kg SC, 10 min before session

Compound: COc1cc(CCNCc2ccccc2O)c(OC)cc1C#N.Cl [25CN-NBOH, N-(2-hydroxybenzyl)-2,5-dimethoxy-4-cyanophenethylamine hydrochloride]
- Difference limen (C57BL/6J mice [1]; [3]): 1.09 ± 0.11 s
- Slope (ε) (C57BL/6J mice [1]; [3]): 1.098±0.125
- T50 (C57BL/6J mice [1]; [3]): 6.33 ± 0.20 s
- Trials completed (C57BL/6J mice [1]; [3]): 182.4±3.7
- Weber fraction (C57BL/6J mice [1]; 25CN-NBOH 1 mg/kg SC, 5 min before session, mean±SEM): 0.175±0.020
- %B responding (proportional choice of lever B) (C57BL/6J mice [1]; 25CN-NBOH 6 mg/kg SC): reduced %B responding at long stimulus intervals
- Difference limen (C57BL/6J mice [1]; [4]): 1.65 ± 0.12 s
- T50 (C57BL/6J mice [1]; [4]): 7.63 ± 0.24 s
- Trials completed (C57BL/6J mice [1]; [4]): 134.5±8.4
- Weber fraction (C57BL/6J mice [1]; [4]): 0.217±0.015
- %B responding (proportional choice of lever B) (C57BL/6J mice [1]; 25CN-NBOH 0.3–3 mg/kg SC): did not significantly alter %B responding
- Correct responding during the 10.5 s-trials (C57BL/6J mice [1]; after drug treatment that reduced %B responding at long stimulus intervals): more than 80%
- ED50 (C57BL/6J mice [2]; Mus musculus, sc, 0.5 h, read-out: HTR ED50): 0.36 mg/kg
- Dose producing the maximal HTR response (C57BL/6J mice [2]; SC, 30-min session): 3 mg/kg
- Ki (human 5-HT2C receptor): 49.8 ± 7.4 nM
- Ki (α2C): 543 nM
- Ki (5-HT6): 573 nM
- Ki (sigma-2): 575 nM
- Ki (α2A): 803 nM
- Ki (α2B): 1230 nM
- Ki (histaminergic H2): 1510 nM
- Ki (β2): 1610 nM
- Head twitch response (HTR) (NIH Swiss mice): induce the head twitch response

Compound: 6-chloro-2,3-dihydro-5-methyl-N-[6-[(2-methyl-3-pyridinyl)oxy]-3-pyridinyl]-1H-indole-1-carboxyamide dihydrochloride [SB-242,084]
- Effect of pretreatment on the response to DOI (%B responding) (C57BL/6J mice [1]; SB-242,084 0.1 mg/kg SC pretreatment, DOI 3 mg/kg IP): did not block the ability of DOI to alter %B responding
- Difference limen (C57BL/6J mice [1]; [5]): 0.98 ± 0.10 s
- Slope (ε) (C57BL/6J mice [1]; [5]): 1.202±0.110
- T50 (C57BL/6J mice [1]; [5]): 6.28 ± 0.14 s
- Trials completed (C57BL/6J mice [1]; [5]): 191.4±1.6
- Weber fraction (C57BL/6J mice [1]; SB-242,084 0.1 mg/kg SC, 10 min before session, mean±SEM): 0.156±0.016
- Difference limen (C57BL/6J mice [1]; [6]): 1.05 ± 0.08 s
- Slope (ε) (C57BL/6J mice [1]; [6]): 1.094±0.084
- T50 (C57BL/6J mice [1]; [6]): 6.02 ± 0.14 s
- Trials completed (C57BL/6J mice [1]; [6]): 189.9±2.5
- Weber fraction (C57BL/6J mice [1]; [6]): 0.173±0.015
- Difference limen (C57BL/6J mice [1]; [7]): 1.07 ± 0.09 s
- Slope (ε) (C57BL/6J mice [1]; [7]): 1.105±0.108
- T50 (C57BL/6J mice [1]; [7]): 5.66 ± 0.17 s
- Trials completed (C57BL/6J mice [1]; [7]): 188.0±2.8
- Weber fraction (C57BL/6J mice [1]; [7]): 0.191±0.018
- Selectivity for 5-HT2C receptors compared with 5-HT2A and 5-HT2B receptors (5-HT2C receptors): over 100 fold
- Selectivity for 5-HT2C over 5-HT2A (5-HT2C): 960 fold
